Measurements reported in PubChem BioAssay AID1845207 (Molecular Pharmacology Branch, DTP, NCI, 2023).
“And” between values parts separate entries of the source, which are not always exact repeats. Equal entries are not always repeated.

Test system: NCI-H1876 tumor spheroid viability
Experiment: Anticancer human tumor NCI-H1876 cell line growth inhibition;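 further: spheroids exposed to compounds for seven days before the viability read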;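 on viability, T/C: percent of DMSO vehicle control viability so 100% = vehicle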
Settings: spheroids with HUVEC and MSC; for IC50: curve of first compound; for viability, T/C: stronger effect = lower value
How it was run: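 Complex spheroids of malignant cells with endothelial cells and mesenchymal stem cells; agents alone or combined, from near clinical Cmax (or 10 microM if unknown) down in half-log steps, 0.25% DMSO final.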

Which IC50 (second compound 30 pM) does the source give for CC1COCCN1c1cc(-c2ccnn2C)c2ccnc(-c3ccn[nH]3)c2n1 (stereo unspecified) + COc1cc2c(cc1O)CCNC21CSC2c3c(OC(C)=O)c(C)c4c(c3C(COC1=O)N1C(O)C3Cc5cc(C)c(OC)c(O)c5C(C21)N3C)OCO4 here?
Its IC50 is less than 31.6 nM.

And the IC50 (second compound 94.9 pM)?
The IC50 was less than 31.6 nM.

What about the IC50 (second compound 0.0003 µM) of the same compound?
Its IC50 is less than 31.6 nM.

What about the IC50 (second compound 0.000949 µM) of the same compound?
The IC50 was less than 31.6 nM.

And the IC50 (second compound 0.003 µM)?
Its IC50 is less than 31.6 nM.

And the viability, T/C (second compound 30 pM, first compound 0.0316 µM)?
Its viability, T/C is 30.7%.

What about the viability, T/C (second compound 30 pM, first compound 0.1 µM) of the same compound?
Its viability, T/C is 17.9%.

What about the viability, T/C (second compound 30 pM, first compound 0.316 µM) of the same compound?
Its viability, T/C is 11.3%.

What about the viability, T/C (second compound 30 pM, first compound 1 µM) of the same compound?
The viability, T/C was 4.58%.

And the viability, T/C (second compound 30 pM, first compound 3.16 µM)?
Its viability, T/C is 3.01%.

And the viability, T/C (second compound 30 pM, first compound 10 µM)?
Its viability, T/C is 2.83%.

What about the viability, T/C (second compound 94.9 pM, first compound 0.0316 µM) of the same compound?
Its viability, T/C is 17.4%.

And the viability, T/C (second compound 94.9 pM, first compound 0.1 µM)?
The viability, T/C was 10.3%.

What about the viability, T/C (second compound 94.9 pM, first compound 0.316 µM) of the same compound?
The viability, T/C was 6.18%.

And the viability, T/C (second compound 94.9 pM, first compound 1 µM)?
The viability, T/C was 3.39%.

And the viability, T/C (second compound 94.9 pM, first compound 3.16 µM)?
Its viability, T/C is 2.3%.

What about the viability, T/C (second compound 94.9 pM, first compound 10 µM) of the same compound?
Its viability, T/C is 2.27%.

And the viability, T/C (second compound 0.0003 µM, first compound 0.0316 µM)?
Its viability, T/C is 5.4%.

And the viability, T/C (second compound 0.0003 µM, first compound 0.1 µM)?
The viability, T/C was 4.29%.

What about the viability, T/C (second compound 0.0003 µM, first compound 0.316 µM) of the same compound?
The viability, T/C was 2.95%.

What about the viability, T/C (second compound 0.0003 µM, first compound 1 µM) of the same compound?
The viability, T/C was 2.33%.

And the viability, T/C (second compound 0.0003 µM, first compound 3.16 µM)?
The viability, T/C was 2.39%.

And the viability, T/C (second compound 0.0003 µM, first compound 10 µM)?
Its viability, T/C is 2.2%.

What about the viability, T/C (second compound 0.000949 µM, first compound 0.0316 µM) of the same compound?
The viability, T/C was 2.56%.

And the viability, T/C (second compound 0.000949 µM, first compound 0.1 µM)?
Its viability, T/C is 2.32%.

And the viability, T/C (second compound 0.000949 µM, first compound 0.316 µM)?
Its viability, T/C is 1.67%.

What about the viability, T/C (second compound 0.000949 µM, first compound 1 µM) of the same compound?
The viability, T/C was 1.48%.

What about the viability, T/C (second compound 0.000949 µM, first compound 3.16 µM) of the same compound?
Its viability, T/C is 1.48%.

And the viability, T/C (second compound 0.000949 µM, first compound 10 µM)?
The viability, T/C was 2.04%.

What about the viability, T/C (second compound 0.003 µM, first compound 0.0316 µM) of the same compound?
The viability, T/C was 0.92%.

What about the viability, T/C (second compound 0.003 µM, first compound 0.1 µM) of the same compound?
Its viability, T/C is 1.05%.

What about the viability, T/C (second compound 0.003 µM, first compound 0.316 µM) of the same compound?
Its viability, T/C is 0.72%.

And the viability, T/C (second compound 0.003 µM, first compound 1 µM)?
The viability, T/C was 0.9%.

What about the viability, T/C (second compound 0.003 µM, first compound 3.16 µM) of the same compound?
Its viability, T/C is 0.88%.

What about the viability, T/C (second compound 0.003 µM, first compound 10 µM) of the same compound?
The viability, T/C was 0.28%.

With Cc1cc(C)c(CNC(=O)c2cc(-c3ccc(CN4CCOCC4)cc3)cc3c2cnn3C2CCCC2)c(=O)[nH]1 as the compound, how does the viability, T/C (compound 0.0316 µM) read?
The viability, T/C was 100% and 97.7% and 96.6%.

And the viability, T/C (compound 0.1 µM)?
The viability, T/C was 102% and 83.9% and 79.4%.

And the viability, T/C (compound 0.316 µM)?
The viability, T/C was 105% and 63% and 63.8%.

What about the viability, T/C (compound 1 µM) of the same compound?
The viability, T/C was 105% and 49.2% and 51.9%.

And the viability, T/C (compound 3.16 µM)?
The viability, T/C was 107% and 28.4% and 30.3%.

And the viability, T/C (compound 10 µM)?
Its viability, T/C is 99.2% and 12% and 11.3%.

What does the source list for O=C(c1cc(Cc2n[nH]c(=O)c3ccccc23)ccc1F)N1CCN(C(=O)C2CC2)CC1 + COc1cc2c(cc1O)CCNC21CSC2c3c(OC(C)=O)c(C)c4c(c3C(COC1=O)N1C(O)C3Cc5cc(C)c(OC)c(O)c5C(C21)N3C)OCO4?
IC50 (second compound 30 pM): 3300 nM; IC50 (second compound 94.9 pM): 1900 nM; IC50 (second compound 0.0003 µM): < 94.9 nM; IC50 (second compound 0.000949 µM): < 94.9 nM; IC50 (second compound 0.003 µM): < 94.9 nM; viability, T/C (second compound 30 pM, first compound 0.0949 µM): 99.7%; viability, T/C (second compound 30 pM, first compound 0.3 µM): 98.4%; viability, T/C (second compound 30 pM, first compound 0.949 µM): 92.7%; viability, T/C (second compound 30 pM, first compound 3 µM): 53.4%; viability, T/C (second compound 30 pM, first compound 9.49 µM): 14.2%; viability, T/C (second compound 30 pM, first compound 30 µM): 9.96%; viability, T/C (second compound 94.9 pM, first compound 0.0949 µM): 85.8%; viability, T/C (second compound 94.9 pM, first compound 0.3 µM): 82.7%; viability, T/C (second compound 94.9 pM, first compound 0.949 µM): 70.5%; viability, T/C (second compound 94.9 pM, first compound 3 µM): 37.2%; viability, T/C (second compound 94.9 pM, first compound 9.49 µM): 7.9%; viability, T/C (second compound 94.9 pM, first compound 30 µM): 7.02%; viability, T/C (second compound 0.0003 µM, first compound 0.0949 µM): 15.1%; viability, T/C (second compound 0.0003 µM, first compound 0.3 µM): 16.9%; viability, T/C (second compound 0.0003 µM, first compound 0.949 µM): 12.9%; viability, T/C (second compound 0.0003 µM, first compound 3 µM): 7.99%; viability, T/C (second compound 0.0003 µM, first compound 9.49 µM): 5.74%; viability, T/C (second compound 0.0003 µM, first compound 30 µM): 4.63%; viability, T/C (second compound 0.000949 µM, first compound 0.0949 µM): 2.17%; viability, T/C (second compound 0.000949 µM, first compound 0.3 µM): 2.25%; viability, T/C (second compound 0.000949 µM, first compound 0.949 µM): 2.87%; viability, T/C (second compound 0.000949 µM, first compound 3 µM): 2.49%; viability, T/C (second compound 0.000949 µM, first compound 9.49 µM): 2.27%; viability, T/C (second compound 0.000949 µM, first compound 30 µM): 2.54%; viability, T/C (second compound 0.003 µM, first compound 0.0949 µM): 6.83%; viability, T/C (second compound 0.003 µM, first compound 0.3 µM): 0.52%; viability, T/C (second compound 0.003 µM, first compound 0.949 µM): 0.47%; viability, T/C (second compound 0.003 µM, first compound 3 µM): 0.53%; viability, T/C (second compound 0.003 µM, first compound 9.49 µM): 0.55%; viability, T/C (second compound 0.003 µM, first compound 30 µM): 0.95%
